Assay results as given in US20230021483A1, “[…] […] METHOD AND CLASSIFICATION OF PHARMACEUTICAL COMPONENTS BY USING TRANSCRIPTOMES” (National Institutes of Biomedical Innovation, Health and …, priority 2016, published 2023).

Tested on: preferentially upregulated genes in LV, SP, LN
Assay: Z-score-based differential gene expression analysis (adjuvant group- or adjuvant-associated genes, 40 module mapping, TargetMine annotation)
Type: in vivo, C57BL/6 mice
Conditions: IP, LV
Procedure, shortened: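 Per-sample fold-change values converted to gene-wise z-scores within each organ's data set, then triplicate z-scores summed per adjuvant. Genes with summed score >3 taken as preferentially expressed; gene groups defined by combined per-adjuvant z-score thresholds (z>1 to z>3) specific to each organ.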

K3: B class CpG ODN (ATCGACTCTCGAGCGTTCTC), TLR9 ligand (chemistry not given here)
−0.4: Tor1aip2 1418116_at (Group G1, Modules 20) (sample x1) | G3bp2 1421323_a_at (Group G1, Modules 20) (sample x2) | Mndal 1426906_at (Group G1, Modules 20) (sample x2) | Rnf213 1455500_at (Group G1, Modules 20) (sample x2) | Shisa5 1437503_a_at (Group G1, Modules 20) (sample x2) | Uba7 1426970_a_at (Group G1, Modules 20) (sample x2) | Ddx58 1436562_at (Group G1, Modules 20) (sample x3) | Ddx58 1456890_at (Group G1, Modules 20) (sample x3) | G3bp2 1421323_a_at (Group G1, Modules 20) (sample x3) | H2-T10///H2-T22///H2-T9 1449875_s_at (Group G1, Modules 20) (sample x3)
−0.7: Eif2ak2 1422005_at (Group G1, Modules 20) (sample x2)
−0.3: Tor1aip2 1435526_at (Group G1, Modules 20) (sample x1) | Ddx58 1456890_at (Group G1, Modules 20) (sample x2) | Ifih1 1426276_at (Group G1, Modules 20) (sample x2) | Pml 1448757_at (Group G1, Modules 20) (sample x2) | Pml 1456103_at (Group G1, Modules 20) (sample x2)
−0.2: Tdrd7 1426716_at (Group G1, Modules 20) (sample x1) | Ddx58 1436562_at (Group G1, Modules 20) (sample x2) | H2-T10///H2-T22///H2-T9 1449875_s_at (Group G1, Modules 20) (sample x2) | Tor1aip2 1418115_s_at (Group G1, Modules 20) (sample x2) | Tor1aip2 1435526_at (Group G1, Modules 20) (sample x2) | Adar 1425405_a_at (Group G1, Modules 20) (sample x3)
−0.6: Shisa5 1423986_a_at (Group G1, Modules 20) (sample x1) | Stat1 1450033_a_at (Group G1, Modules 20) (sample x1) | Irf7 1417244_a_at (Group G1, Modules 20) (sample x2) | Stat1 1450034_at (Group G1, Modules 20) (sample x2)
−0.5: Ifit3 1449025_at (Group G1, Modules 20) (sample x1) | Irf7 1417244_a_at (Group G1, Modules 20) (sample x1) | Irgm1 1418825_at (Group G1, Modules 20) (sample x1) | Mndal 1426906_at (Group G1, Modules 20) (sample x1) | Pml 1448757_at (Group G1, Modules 20) (sample x1) | Pml 1456103_at (Group G1, Modules 20) (sample x1) | Rnf213 1455500_at (Group G1, Modules 20) (sample x1) | Rsad2 1436058_at (Group G1, Modules 20) (sample x1) | Shisa5 1437503_a_at (Group G1, Modules 20) (sample x1) | Stat1 1450034_at (Group G1, Modules 20) (sample x1) | Tor1aip2 1418115_s_at (Group G1, Modules 20) (sample x1) | Trim12a 1437432_a_at (Group G1, Modules 20) (sample x1) | Uba7 1426970_a_at (Group G1, Modules 20) (sample x1) | Adar 1425405_a_at (Group G1, Modules 20) (sample x2) | Gm9706///Isg15 1431591_s_at (Group G1, Modules 20) (sample x2) | Ifit1 1450783_at (Group G1, Modules 20) (sample x2) | Ifit3 1449025_at (Group G1, Modules 20) (sample x2) | Irgm1 1418825_at (Group G1, Modules 20) (sample x2) | Rsad2 1436058_at (Group G1, Modules 20) (sample x2) | Shisa5 1423986_a_at (Group G1, Modules 20) (sample x2) | Stat1 1450033_a_at (Group G1, Modules 20) (sample x2) | Trim12a 1437432_a_at (Group G1, Modules 20) (sample x2) | Eif2ak2 1422005_at (Group G1, Modules 20) (sample x3) | Gm9706///Isg15 1431591_s_at (Group G1, Modules 20) (sample x3) | Ifih1 1426276_at (Group G1, Modules 20) (sample x3) | Ifit1 1450783_at (Group G1, Modules 20) (sample x3) | Ifit3 1449025_at (Group G1, Modules 20) (sample x3)
−0: Tor1aip2 1418116_at (Group G1, Modules 20) (sample x2)
−0.8: Adar 1434268_at (Group G1, Modules 20) (sample x2) | Adar 1434268_at (Group G1, Modules 20) (sample x3)
−0.1: Tdrd7 1426716_at (Group G1, Modules 20) (sample x2)
